Where “and” joins values, the source holds several entries; their conditions need not be identical. Equal entries are not always repeated. Entries after “also recorded” stand apart in the source; their conditions may differ.
Tests used:
[1] = tested on: prostate cancer (PC-3); assay: MTT antiproliferative assay, PC-3; details: Homo sapiens; for inhibition at 100 µM: read-out: Growth inhibition (%) PC-3; for IC50: read-out: IC50 PC-3
Method: (§1) Preliminary screening against the cancer cell lines was performed, using doxorubicin as a reference drug at doses of 100 μM.
(§2) In vitro cytotoxicity was carried out using MTT assay protocol[63] as described in Supplementary data.
(§3) proliferative activity was assessed quantitatively as follows;
(§4) Human cancer cell lines were dropped in 96-well plates at a density of 3-8 × 10^3 cells/well.
(§5) growth medium was exchanged with 0.1 ml of fresh medium containing graded concentrations of the test compounds to be or equal DMSO and incubated for two days. Then 10 μl MTT solution (0.5 mg/ml) was added to each well, and the cells were incubated for additional 4 h. The crystals of MTT-formazan were dissolved in 100 μl of DMSO; the absorbance of each well was measured at 490 nm using an automatic ELISA reader system (TECAN, CHE). The IC50 values were calculated using the nonlinear regression fitting models (Graph Pad, Prism Version 5). The data represented the mean of three independent experiments in triplicate and were expressed as means
(§6) The results were expressed as growth inhibitory concentration (IC50) values and

[2] = tested on: PC-3 cells; assay: Cell cycle analysis by flow cytometry (PI staining); format: cell-based, human
[3] = tested on: PC-3 cells; assay: Annexin V-FITC/PI apoptosis assay; format: cell-based, human; details: PC-3, 7.98 µM, 24 h
Method: The results were depicted in (Figure 6 and Supplementary data).
The effect of compound 8a on cell apoptosis was investigated as described in Supplementary data[76–78].
4.1.3. Annexin V-FITC apoptosis assay.
To detect the apoptosis induced by compound 8a, PC-3 cells were seeded and incubated overnight […]
the negative control. After that, the cells were collected and washed with PBS two successive times. The cells were exposed to centrifugation. Apoptosis detection kit (BD Biosciences, San Jose, CA) was used in this test. According to the manufacturer's protocol the cells were stained by Annexin V-FITC and propidium iodide (PI) in the binding buffer for 20min at room temperature in the dark. Using a flow cytometer, Annexin V-FITC and PI binding were analyzed. flowjo software was used to analyze the frequencies in all quadrants.
Cell cycle distribution (%)

[4] = tested on: caspase-3 in PC-3 cells; assay: Caspase-3 determination (ELISA); format: cell-based, human
[5] = tested on: lung cancer (A-549); assay: MTT antiproliferative assay, A-549; details: Homo sapiens; for inhibition at 100 µM: A549, read-out: Growth inhibition (%) A549; for IC50: A549, read-out: IC50 A-549, MTT, mean of at least three experiments
Method: as §1, §2, §3, §4, §5, §6

[6] = biological target: EGFR^T790M (Homo sapiens, UniProt P00533, T790M); assay: EGFRT790M kinase inhibitory assay (HTRF)
Method: (§7) In vitro EGFR inhibitory activity was assessed using Homogeneous time-resolved fluorescence (HTRF) assay[64] as described in Supplementary data.
(§8) The IC50 values were calculated using the nonlinear regression fitting models (Graph Pad, Prism Version 5).
(§9) EGFRWT and EGFRT790M kinase inhibitory assay
(§10) Homogeneous time resolved fluorescence (HTRF) assay was applied in this test.
(§11) EGFRWT, EGFRT790M (Sigma). firstly, the EGFRWT and/or EGFRT790M and their substrates were incubated with the tested compounds in enzymatic buffer for 5 min.
(§12) into the reaction mixture to allow starting the enzymatic reaction. The assay was conducted for 30 min at room temperature. The reaction was stopped by addition of detection reagents which contain
(§13) GraphPad Prism 5.0. Three independent experiments were performed for each concentration.

[7] = tested on: breast cancer (MCF-7); assay: MTT antiproliferative assay, MCF-7; details: Homo sapiens; for inhibition at 100 µM: MCF7, read-out: Growth inhibition (%) MCF-7
Method: as §1, §2, §3, §4, §5, §6

[8] = tested on: colon cancer (HCT-116); assay: MTT antiproliferative assay, HCT-116; details: for inhibition at 100 µM / IC50: Homo sapiens; for inhibition at 100 µM: HCT-116, read-out: Growth inhibition (%) HCT-116; for IC50: HCT-116, read-out: IC50 HCT-116; for Cytotoxic activity against HCT-116: MTT
Method: as §1, §2, §3, §4, §5, §6

[9] = biological target: EGFR^WT (Homo sapiens, UniProt P00533); assay: EGFRWT kinase inhibitory assay (HTRF)
Sequence of EGFR^WT (P00533 25-1210): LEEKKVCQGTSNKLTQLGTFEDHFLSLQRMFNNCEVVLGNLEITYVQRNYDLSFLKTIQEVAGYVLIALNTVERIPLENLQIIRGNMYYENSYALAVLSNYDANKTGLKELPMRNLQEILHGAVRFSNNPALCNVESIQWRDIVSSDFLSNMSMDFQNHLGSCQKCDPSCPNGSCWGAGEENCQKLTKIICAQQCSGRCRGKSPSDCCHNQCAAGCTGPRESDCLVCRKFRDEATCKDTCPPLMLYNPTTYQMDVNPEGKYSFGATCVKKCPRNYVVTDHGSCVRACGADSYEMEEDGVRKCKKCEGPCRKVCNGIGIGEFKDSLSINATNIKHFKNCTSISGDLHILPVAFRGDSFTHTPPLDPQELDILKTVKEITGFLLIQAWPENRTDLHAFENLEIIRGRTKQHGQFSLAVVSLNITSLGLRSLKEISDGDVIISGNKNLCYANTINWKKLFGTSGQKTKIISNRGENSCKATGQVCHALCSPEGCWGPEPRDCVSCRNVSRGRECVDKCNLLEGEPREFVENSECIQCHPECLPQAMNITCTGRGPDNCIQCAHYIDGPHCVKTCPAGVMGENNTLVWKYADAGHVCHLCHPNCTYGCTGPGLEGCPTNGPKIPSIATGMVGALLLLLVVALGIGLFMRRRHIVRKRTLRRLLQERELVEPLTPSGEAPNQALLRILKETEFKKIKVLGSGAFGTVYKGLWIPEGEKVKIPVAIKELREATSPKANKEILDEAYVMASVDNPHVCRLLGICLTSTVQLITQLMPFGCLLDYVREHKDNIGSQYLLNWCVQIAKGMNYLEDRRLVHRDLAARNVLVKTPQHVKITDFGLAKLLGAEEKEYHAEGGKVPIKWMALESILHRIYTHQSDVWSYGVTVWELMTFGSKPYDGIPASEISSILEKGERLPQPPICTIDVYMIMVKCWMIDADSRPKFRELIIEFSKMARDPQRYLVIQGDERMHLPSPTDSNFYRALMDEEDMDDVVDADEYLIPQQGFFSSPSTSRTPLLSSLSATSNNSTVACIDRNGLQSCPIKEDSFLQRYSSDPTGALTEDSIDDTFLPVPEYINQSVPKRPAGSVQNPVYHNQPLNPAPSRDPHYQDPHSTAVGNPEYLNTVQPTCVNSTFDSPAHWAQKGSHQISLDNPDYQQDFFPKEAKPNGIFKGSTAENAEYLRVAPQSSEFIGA
Method: as §7, §8, §9, §10, §11, §12, §13

Sequence of EGFR^T790M (P00533 25-1210 T790M): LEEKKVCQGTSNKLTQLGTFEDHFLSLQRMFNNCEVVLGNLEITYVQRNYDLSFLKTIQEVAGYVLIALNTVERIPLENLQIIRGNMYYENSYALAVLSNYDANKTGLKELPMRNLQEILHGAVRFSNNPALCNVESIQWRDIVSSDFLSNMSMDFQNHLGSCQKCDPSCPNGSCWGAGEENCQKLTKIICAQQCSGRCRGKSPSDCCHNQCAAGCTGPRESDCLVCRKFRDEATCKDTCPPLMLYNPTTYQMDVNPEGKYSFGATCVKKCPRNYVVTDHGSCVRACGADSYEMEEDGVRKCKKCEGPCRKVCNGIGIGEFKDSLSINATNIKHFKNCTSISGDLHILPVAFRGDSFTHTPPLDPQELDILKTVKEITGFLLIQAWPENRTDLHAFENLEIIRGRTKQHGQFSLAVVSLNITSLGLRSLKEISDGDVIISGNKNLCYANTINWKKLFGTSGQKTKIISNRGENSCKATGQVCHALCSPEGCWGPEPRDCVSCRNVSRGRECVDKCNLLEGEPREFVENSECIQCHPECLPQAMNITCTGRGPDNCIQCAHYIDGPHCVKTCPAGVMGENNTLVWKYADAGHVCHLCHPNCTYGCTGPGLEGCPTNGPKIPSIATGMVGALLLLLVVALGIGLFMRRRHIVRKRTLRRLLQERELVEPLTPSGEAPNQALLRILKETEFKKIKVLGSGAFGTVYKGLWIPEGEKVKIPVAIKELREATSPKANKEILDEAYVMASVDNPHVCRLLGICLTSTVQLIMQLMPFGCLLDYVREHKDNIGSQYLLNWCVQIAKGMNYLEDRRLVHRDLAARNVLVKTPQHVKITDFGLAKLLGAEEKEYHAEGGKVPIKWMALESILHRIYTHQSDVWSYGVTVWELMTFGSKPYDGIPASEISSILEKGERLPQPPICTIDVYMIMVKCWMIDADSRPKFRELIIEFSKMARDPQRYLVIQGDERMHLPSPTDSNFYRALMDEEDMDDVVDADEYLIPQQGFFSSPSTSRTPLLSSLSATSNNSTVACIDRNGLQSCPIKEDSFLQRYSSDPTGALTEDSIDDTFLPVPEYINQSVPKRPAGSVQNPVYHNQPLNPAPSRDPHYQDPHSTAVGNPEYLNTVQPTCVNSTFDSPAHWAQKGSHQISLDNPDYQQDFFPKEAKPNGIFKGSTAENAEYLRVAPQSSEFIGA

Row | IC50 [1] [µM] | IC50 [5] [µM] | IC50 [6] [µM] | IC50 [8] [µM] | IC50 [9] [µM] | melting point [°C] | Structure (SMILES) | inhibition at 100 µM [1] [%] | inhibition at 100 µM [5] [%] | inhibition at 100 µM [7] [%] | inhibition at 100 µM [8] [%] | Cytotoxic activity against HCT-116 [8] | further results
1 | 7.98 ± 2.4 | 16.2 ± 2.4 | 0.123 ± 0.01 | 25.6 ± 1.3 | 0.099 ± 0.007 | – | Cc1ccc(-c2cc(-c3ccc(Cl)cc3)nc3nc4[nH]c5ccccc5c(=O)n4c(=O)c23)cc1 [Compound 8a, 2–(4-Chlorophenyl)-4-(p-tolyl)-5H-pyrido[2',3':4,5]pyrimido [2,1-b] quinazoline-5,7(12H)-dione] | 98 | 90 | 32 | 84 | mild cytotoxic activity | Increase of cell population at %S vs control ([2]; PC-3, 7.98 µM, 24 h): 1.3 folds; Increase of cell population at pre-G1 vs control ([2]; PC-3, 7.98 µM, 24 h): 22 folds; Cell cycle distribution %Pre-G1 ([2]; PC-3, 7.98 µM, 24 h, control 1.78%): 41.06%; Cell cycle distribution %G2-M ([2]; PC-3, 7.98 µM, 24 h, control 9.75%): 4.93%; Cell cycle distribution %S ([2]; PC-3, 7.98 µM, 24 h, control 41.03%): 53.69%; Cell cycle distribution %G0-G1 ([2]; PC-3, 7.98 µM, 24 h, control 49.22%): 41.38%; Cell cycle arrest phase ([2]; PC-3 cells): arrested the cell cycle at pre-G1 phase; also recorded: arrest the PC-3 cell line at pre-G1; also recorded: arrested the cell cycle at the pre-G1 phase; Increase in early apoptosis ratio vs control [3]: 32 fold; Increase in late apoptosis ratio vs control [3]: 150 fold; Late apoptosis ([3]; control 0.15%): 22.49%; Early apoptosis ([3]; control 0.43%): 13.92%; Necrosis ([3]; control 1.20): 4.65%; Total apoptosis ([3]; control 1.78): 41.06%; Increase in caspase-3 level vs control cells ([4]; 24 h): 5.3 fold; Caspase-3 level ([4]; 24 h treatment, 8a at 3.04 µM, control 84.24, mean ± SEM): 452.3 pg/mL and 452.3 ± 10.5 pg/mL
2 | 18 ± 2.3 | 16 | 0.29 | 26 ± 1.3 | – | > 300 | COc1ccc(-c2cc(-c3ccc(C)cc3)nc3nc4[nH]c5ccccc5c(=O)n4c(=O)c23)cc1 [Compound 8b, 4–(4-Methoxyphenyl)-2-(p-tolyl)-5H-pyrido[2',3':4,5] pyrimido[2,1-b] quinazoline-5,7(12H)-dione] | 96 | 94 | 9 | 67 | mild cytotoxic activity | –
3 | 7.12 ± 2 | 7.23 ± 2.1 | 0.29 ± 0.023 | 70.2 ± 2 | 0.419 ± 0.029 | > 300 | COc1cc(-c2cc(-c3ccc(C)cc3)nc3nc4[nH]c5ccccc5c(=O)n4c(=O)c23)cc(OC)c1OC [Compound 8d, 2-(p-Tolyl)-4–(3,4,5-trimethoxyphenyl)-5H-pyrido[2',3':4,5] pyrimido[2,1-b]quinazoline-5,7(12H)-dione] | 95 | 97 | 15 | 78 | mild cytotoxic activity | –
4 | 9.26 ± 2.4 | – | 0.571 ± 0.046 | – | 0.594 ± 0.042 | 265 to 267 | NNc1nc2nc(-c3ccc(Cl)cc3)cc(-c3ccc(Cl)cc3Cl)c2c(=O)[nH]1 [Compound 9a, 7-(4-Chlorophenyl)-5–(2,4-dichlorophenyl)-2-hydrazineylpyrido[2,3-d]pyrimidin-4(3H)-one] | 90 | 42 | 68 | 89 | – | IC50 ([7]; MCF7, read-out: IC50 MCF-7): 42 ± 1.2 µM
